Eight compounds from PubChem BioAssay (NCI) can be followed below.

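Briefly, cells in 96-well plates were exposed to five compound concentrations for 48 h, and endpoints were estimated by linear interpolation. TGI is the concentration that stops growth completely.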 A value given as a limit tells only on which side of the number the result lay.

Test systems include OVCAR-4 ovarian; K-562 leukemia; NCI-H226 lung; HCT-116 colon; MOLT-4 leukemia; SW-620 colon; 786-0 renal; SK-MEL-2 melanoma; UO-31 renal; HOP-62 NSCLC; HCT-15 colon; SF-295 CNS; MALME-3M melanoma; COLO 205 colon; UACC-257 melanoma.
Test in all cases: NCI-60 cell line screen, 48 h

For `COc1ccc(Cc2c3cc(OC)c(OC)cc3cc[n+]2C)cc1`, the TGI in the assay with OVCAR-4 ovarian was over 40.5 µM; in the assay with K-562 leukemia, over 100 µM; in the assay with NCI-H226 lung, over 51.9 µM; in the assay with HCT-116 colon, over 24.8 µM; with MOLT-4 leukemia, over 100 µM; in the assay with SW-620 colon, over 100 µM. Moreover, the TGI with 786-0 renal was over 29.7 µM; in the assay on SK-MEL-2 melanoma, over 45.8 µM; in the assay with UO-31 renal, over 51.4 µM; in the assay on HOP-62 NSCLC, over 48.7 µM; with HCT-15 colon, over 52.8 µM; in the assay on SF-295 CNS it was over 24.7 µM. Further, the TGI in the assay with MALME-3M melanoma was over 60.3 µM; in the assay on COLO 205 colon, over 16.7 µM; in the assay with UACC-257 melanoma, over 58.4 µM.

Regarding `CC1CC(=O)C(CC(=O)O)[C@H]1C(C(=O)C(=O)Nc1cc(Cl)ccc1Cl)[N+](=O)[O-]` (some centres undefined), the TGI in the assay on K-562 leukemia, with NCI-H226 lung, in the assay on SW-620 colon, with 786-0 renal, with UO-31 renal and in the assay on HOP-62 NSCLC was over 100 µM each time. Moreover, the TGI with HCT-15 colon, in the assay with SF-295 CNS and in the assay with COLO 205 colon was over 100 µM in each case.

As for `C[C@H](O)CCC(=O)c1ccoc1`, the TGI in the assay on OVCAR-4 ovarian, in the assay on K-562 leukemia, in the assay on NCI-H226 lung, in the assay with HCT-116 colon, in the assay with MOLT-4 leukemia and in the assay on SW-620 colon was over 100 µM in each case. Further, the TGI with 786-0 renal, in the assay with SK-MEL-2 melanoma, in the assay with UO-31 renal, in the assay with HOP-62 NSCLC, with HCT-15 colon and in the assay on SF-295 CNS was over 100 µM each time. Also, the TGI in the assay with MALME-3M melanoma, with COLO 205 colon and with UACC-257 melanoma was over 100 µM in each case.

As for `O=c1ccn([C@@H]2C[C@H](CO)CS(=O)C2)c(=O)[nH]1` (some centres undefined), the TGI in the assay with OVCAR-4 ovarian, in the assay with K-562 leukemia, in the assay on NCI-H226 lung, in the assay with HCT-116 colon, in the assay on MOLT-4 leukemia and in the assay on SW-620 colon was over 100 µM throughout. In addition, the TGI in the assay on 786-0 renal, with SK-MEL-2 melanoma, in the assay on UO-31 renal, with HOP-62 NSCLC, in the assay on HCT-15 colon and in the assay with SF-295 CNS was over 100 µM in each case. The TGI with MALME-3M melanoma, in the assay with COLO 205 colon and with UACC-257 melanoma was over 100 µM throughout.

In the case of `Cc1[nH]n(C(=O)Cc2ccccc2)c(=O)c1/C=C1\C(=O)C=Cc2ccccc21`, the TGI in the assay with OVCAR-4 ovarian, with K-562 leukemia, with NCI-H226 lung, in the assay on HCT-116 colon, in the assay with MOLT-4 leukemia and with SW-620 colon was over 100 µM in each case. Moreover, the TGI in the assay on 786-0 renal was over 100 µM; in the assay on UO-31 renal, 79.9 µM; with HOP-62 NSCLC it was over 100 µM; with HCT-15 colon it was over 100 µM; with SF-295 CNS it was over 100 µM; in the assay on MALME-3M melanoma it was 40.2 µM. Moreover, the TGI in the assay on COLO 205 colon and in the assay with UACC-257 melanoma was over 100 µM in each case.

`CCCCCCCCCCCCCCCCCCCCCCC(=O)N[C@H]1CCc2cc(OC)c(OC)c(OC)c2-c2ccc(SC)c(=O)cc21`: the TGI was over 100 µM with OVCAR-4 ovarian; over 100 µM in the assay with K-562 leukemia; 8.23 µM with NCI-H226 lung; 69.3 µM with HCT-116 colon; over 100 µM in the assay with MOLT-4 leukemia; over 100 µM in the assay on SW-620 colon. The TGI is over 100 µM in the assay with 786-0 renal; over 100 µM with UO-31 renal; over 100 µM with HOP-62 NSCLC; 71 µM in the assay with HCT-15 colon; over 100 µM with SF-295 CNS; over 100 µM in the assay on MALME-3M melanoma. Also, the values for the TGI in the assay on COLO 205 colon and in the assay with UACC-257 melanoma were 31.9 µM and over 100 µM, respectively.

As to `CCCCc1c2c([n+]([O-])c3c1CCCC3)CCCC2`, the TGI in the assay with K-562 leukemia, in the assay on NCI-H226 lung, in the assay with HCT-116 colon, in the assay on MOLT-4 leukemia, in the assay on SW-620 colon and in the assay on 786-0 renal was over 100 µM throughout. Also, the TGI in the assay on UO-31 renal, with HOP-62 NSCLC, with HCT-15 colon, in the assay on SF-295 CNS, in the assay with MALME-3M melanoma and with COLO 205 colon was over 100 µM throughout. The compound also returned a TGI in the assay with UACC-257 melanoma of over 100 µM.

Turning to `CCn1c(O)c(C(=O)Nc2cccs2)c(=O)n(CC)c1=S`, the TGI was determined as 70.9 µM in the assay with OVCAR-4 ovarian; 53.6 µM in the assay on K-562 leukemia; 56.8 µM in the assay on NCI-H226 lung; 37.3 µM in the assay with HCT-116 colon; 59.8 µM with MOLT-4 leukemia; 56.2 µM with SW-620 colon. For the same compound, the TGI came to 42.2 µM in the assay with 786-0 renal; 32.8 µM in the assay with SK-MEL-2 melanoma; 47.6 µM in the assay on HOP-62 NSCLC; 41.7 µM with HCT-15 colon; 35.6 µM in the assay on SF-295 CNS; 38.6 µM in the assay on MALME-3M melanoma. The TGI with COLO 205 colon is 32.2 µM; in the assay with UACC-257 melanoma, 56 µM.
